Assay results published in US11554171B2, “Compounds and methods for the targeted degradation of bromodomain-containing proteins” (Arvinas Operations, Inc., priority 2015, dated 2023).

Test system: c-myc in 22RV-1 cells
Test: Human c-myc ELISA assay
Assay type: cell-based
Settings: Homo sapiens; for Emax: 22Rv1, 18 h, read-out: Degradation of BRD4: Maximum inhibition (%) c-Myc ELISA in 22RV1 cells; for DC50: 22Rv1, read-out: Degradation of BRD4: DC50 (uM) c-Myc ELISA in 22RV1 cells
How it was run: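 c-myc levels measured by ELISA in RIPA lysates of 22RV-1 cells, calibrated with a 333-0 pg/ml standard curve. Lysates came from cells exposed for 18 h to an 8-point, 1:3 dose series starting at 300 nM or 1 μM final in 0.1% DMSO. Suppression potency given as DC50.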

| Compound | DC50 [µM] | Emax [%] |
| --- | --- | --- |
| Cc1ncsc1-c1ccc([C@H](C)NC(=O)[C@@H]2C[C@@H](O)CN2C(=O)[C@@H](NC(=O)COc2ccc(N3CCN(C(=O)C[C@@H]4N=C(c5ccc(Cl)cc5)c5c(sc(C)c5C)-n5c(C)nnc54)CC3)nc2)C(C)(C)C)cc1 [Example 288] | < 0.01 | 98 |
| Cc1sc2c(c1C)C(c1ccc(Cl)cc1)=N[C@@H](CC(=O)N[C@H]1C[C@@H](Oc3cc(-c4cnn([C@H](C(=O)N5C[C@H](O)C[C@H]5C(=O)N[C@@H](C)c5ccc(-n6ccnc6C)cc5)C(C)C)c4)ccn3)C1)c1nnc(C)n1-2 [Example 289] | 0.1 to 1 | 93.8 |
| Cc1sc2c(c1C)C(c1ccc(Cl)cc1)=N[C@@H](CC(=O)N[C@H]1C[C@@H](Oc3cccc(-c4cnn([C@@H](C(=O)N5C[C@H](O)C[C@H]5C(=O)N[C@@H](C)c5ccc(-c6nccn6C)cc5)C(C)C)c4)c3)C1)c1nnc(C)n1-2 [Example 290] | > 1 | 15.5 |
| Cc1sc2c(c1C)C(c1ccc(Cl)cc1)=N[C@@H](CC(=O)N[C@H]1C[C@@H](Oc3cccc(-c4cnn([C@H](C(=O)N5C[C@H](O)C[C@H]5C(=O)N[C@@H](C)c5ccc(-c6nccn6C)cc5)C(C)C)c4)c3)C1)c1nnc(C)n1-2 [Example 291] | > 1 | 22.2 |
| Cc1sc2c(c1C)C(c1ccc(Cl)cc1)=N[C@@H](CC(=O)N[C@H]1C[C@@H](Oc3cc(-c4cnn([C@@H](C(=O)N5C[C@H](O)C[C@H]5C(=O)N[C@@H](C)c5ccc(-c6nccn6C)cc5)C(C)C)c4)ccn3)C1)c1nnc(C)n1-2 [Example 292] | > 1 | 10 |
| Cc1sc2c(c1C)C(c1ccc(Cl)cc1)=N[C@@H](CC(=O)N[C@H]1C[C@@H](Oc3cc(-c4cnn([C@H](C(=O)N5C[C@H](O)C[C@H]5C(=O)N[C@@H](C)c5ccc(-c6nccn6C)cc5)C(C)C)c4)ccn3)C1)c1nnc(C)n1-2 [Example 293] | > 1 | 9.5 |
| Cc1ncoc1-c1ccc(CNC(=O)[C@@H]2C[C@@H](O)CN2C(=O)[C@@H](C(C)C)n2cc(-c3ccnc(O[C@H]4C[C@@H](NC(=O)C[C@@H]5N=C(c6ccc(Cl)cc6)c6c(sc(C)c6C)-n6c(C)nnc65)C4)c3)cn2)cc1 [Example 294] | > 1 | 43.4 |
| Cc1ncoc1-c1ccc(CNC(=O)[C@@H]2C[C@@H](O)CN2C(=O)[C@H](C(C)C)n2cc(-c3ccnc(O[C@H]4C[C@@H](NC(=O)C[C@@H]5N=C(c6ccc(Cl)cc6)c6c(sc(C)c6C)-n6c(C)nnc65)C4)c3)cn2)cc1 [Example 295] | 0.1 to 1 | 93.8 |
| Cc1ncsc1-c1ccc(CNC(=O)[C@@H]2C[C@@H](O)CN2C(=O)[C@H](c2cc(OCCC(F)(F)CCNC(=O)C[C@@H]3N=C(c4ccc(Cl)cc4)c4c(sc(C)c4C)-n4c(C)nnc43)no2)C(C)C)cc1 [Example 296, (2S,4R)-1-[(2S)-2-{3-[(5-{2-[(9S)-7-(4-chlorophenyl)-4,5,13-trimethyl-3-thia-1,8,11,12-tetraazatricyclo[8.3.0.0^2,^6]trideca-2(6),4,7,10,12-pentaen-9-yl]acetamido}-3,3-difluoropentyl)oxy]-1,2-oxazol-5-yl}-3-methylbutanoyl]-4-hydroxy-N-{[4-(4-methyl-1,3-thiazol-5-yl)phenyl]methyl}pyrrolidine-2-carboxamide] | 0.1 to 1 | 71.4 |
| Cc1ncsc1-c1ccc(CNC(=O)[C@@H]2C[C@@H](O)CN2C(=O)[C@@H](c2cc(OCCC(F)(F)CCNC(=O)C[C@@H]3N=C(c4ccc(Cl)cc4)c4c(sc(C)c4C)-n4c(C)nnc43)no2)C(C)C)cc1 [Example 297, (2S,4R)-1-[(2R)-2-{3-[(5-{2-[(9S)-7-(4-chlorophenyl)-4,5,13-trimethyl-3-thia-1,8,11,12-tetraazatricyclo[8.3.0.0^2,^6]trideca-2(6),4,7,10,12-pentaen-9-yl]acetamido}-3,3-difluoropentyl)oxy]-1,2-oxazol-5-yl}-3-methylbutanoyl]-4-hydroxy-N-{[4-(4-methyl-1,3-thiazol-5-yl)phenyl]methyl}pyrrolidine-2-carboxamide] | < 0.01 | 97 |
| Cc1sc2c(c1C)C(c1ccc(Cl)cc1)=N[C@@H](CC(=O)N[C@H]1C[C@@H](Oc3cccc(-c4cnn([C@@H](C(=O)N5C[C@H](O)C[C@H]5C(=O)N[C@@H](C)c5ccc(-n6ccnc6C)cc5)C(C)C)c4)c3)C1)c1nnc(C)n1-2 [Example 298] | > 1 | 25.5 |
| Cc1ncsc1-c1ccc([C@H](C)NC(=O)[C@@H]2C[C@@H](O)CN2C(=O)[C@@H](NC(=O)CN2CCC(O[C@H]3C[C@H](NC(=O)C[C@@H]4N=C(c5ccc(Cl)cc5)c5c(sc(C)c5C)-n5c(C)nnc54)C3)CC2)C(C)(C)C)cc1 [Example 306, (2S,4R)-1-[(2S)-3,3-dimethyl-2-(2-{4-[(1,3-trans)-3-{2-[(9S)-7-(4-chlorophenyl)-4,5,13-trimethyl-3-thia-1,8,11,12-tetraazatricyclo[8.3.0.0^2,^6]trideca-2(6),4,7,10,12-pentaen-9-yl]acetamido}cyclobutoxy]piperidin-1-yl}acetamido)butanoyl]-4-hydroxy-N-[(1S)-1-[4-(4-methyl-1,3-thiazol-5-yl)phenyl]ethyl]pyrrolidine-2-carboxamide] | < 0.01 | 100 |

Further lines, with some results ahead:

| DC50 [µM] | Compound | Emax [%] |
| --- | --- | --- |
| 0.1 to 1 | Cc1sc2c(c1C)C(c1ccc(Cl)cc1)=N[C@@H](CC(=O)N[C@H]1C[C@@H](Oc3cccc(-c4cnn([C@H](C(=O)N5C[C@H](O)C[C@H]5C(=O)N[C@@H](C)c5ccc(-n6ccnc6C)cc5)C(C)C)c4)c3)C1)c1nnc(C)n1-2 [Example 299] | 72.5 |
| > 1 | Cc1ncsc1-c1ccc([C@H](C)NC(=O)[C@@H]2C[C@@H](O)CN2C(=O)[C@@H](C(C)C)n2cc(-c3ccnc(O[C@H]4C[C@@H](NC(=O)C[C@@H]5N=C(c6ccc(Cl)cc6)c6c(sc(C)c6C)-n6c(C)nnc65)C4)n3)cn2)cc1 [Example 300] | 24 |
| 0.01 to 0.1 | Cc1ncsc1-c1ccc([C@H](C)NC(=O)[C@@H]2C[C@@H](O)CN2C(=O)[C@H](C(C)C)n2cc(-c3ccnc(O[C@H]4C[C@@H](NC(=O)C[C@@H]5N=C(c6ccc(Cl)cc6)c6c(sc(C)c6C)-n6c(C)nnc65)C4)n3)cn2)cc1 [Example 301] | 95 |
| 0.01 to 0.1 | Cc1ncsc1-c1ccc([C@H](C)NC(=O)[C@@H]2C[C@@H](O)CN2C(=O)[C@H](C(C)C)n2cc(-c3cc(O[C@H]4C[C@@H](NC(=O)C[C@@H]5N=C(c6ccc(Cl)cc6)c6c(sc(C)c6C)-n6c(C)nnc65)C4)ccn3)cn2)cc1 [Example 302] | 92 |
| > 1 | Cc1ncsc1-c1ccc([C@H](C)NC(=O)[C@@H]2C[C@@H](O)CN2C(=O)[C@@H](C(C)C)n2cc(-c3cc(O[C@H]4C[C@@H](NC(=O)C[C@@H]5N=C(c6ccc(Cl)cc6)c6c(sc(C)c6C)-n6c(C)nnc65)C4)ccn3)cn2)cc1 [Example 303] | 9.8 |
| 0.01 to 0.1 | Cc1ncsc1-c1ccc([C@H](C)NC(=O)[C@@H]2C[C@@H](O)CN2C(=O)[C@H](C(C)C)n2cc(-c3cc(O[C@H]4C[C@H](NC(=O)C[C@@H]5N=C(c6ccc(Cl)cc6)c6c(sc(C)c6C)-n6c(C)nnc65)C4)ccn3)cn2)cc1 [Example 304] | 95 |
| > 1 | Cc1ncsc1-c1ccc([C@H](C)NC(=O)[C@@H]2C[C@@H](O)CN2C(=O)[C@@H](C(C)C)n2cc(-c3cc(O[C@H]4C[C@H](NC(=O)C[C@@H]5N=C(c6ccc(Cl)cc6)c6c(sc(C)c6C)-n6c(C)nnc65)C4)ccn3)cn2)cc1 [Example 305] | 6.7 |
| > 1 | Cc1sc2c(c1C)C(c1ccc(Cl)cc1)=N[C@@H](CC(=O)N[C@H]1C[C@H](Oc3ccc(CC(=O)N[C@H](C(=O)N4C[C@H](O)C[C@H]4C(=O)N[C@@H](C)c4ccc(S(C)(=O)=O)cc4)C(C)(C)C)cc3)C1)c1nnc(C)n1-2 [Example 307] | 15 |
| > 1 | Cc1sc2c(c1C)C(c1ccc(Cl)cc1)=N[C@@H](CC(=O)N[C@H]1C[C@H](Oc3ccc(CC(=O)N[C@H](C(=O)N4C[C@H](O)C[C@H]4C(=O)N[C@H](C)c4ccc(S(C)(=O)=O)cc4)C(C)(C)C)cc3)C1)c1nnc(C)n1-2 [Example 308] | 21 |
| > 1 | Cc1ncsc1-c1ccc(CNC(=O)[C@@H]2C[C@@H](O)CN2C(=O)[C@H](c2cc(OCCN3CC[C@H](NC(=O)C[C@@H]4N=C(c5ccc(Cl)cc5)c5c(sc(C)c5C)-n5c(C)nnc54)C3)no2)C(C)C)cc1 [Example 309] | 18 |
| < 0.01 | Cc1ncsc1-c1ccc(CNC(=O)[C@@H]2C[C@@H](O)CN2C(=O)[C@@H](c2cc(OCCN3CC[C@H](NC(=O)C[C@@H]4N=C(c5ccc(Cl)cc5)c5c(sc(C)c5C)-n5c(C)nnc54)C3)no2)C(C)C)cc1 [Example 310] | 94 |
| 0.01 to 0.1 | Cc1ncsc1-c1ccc([C@H](C)NC(=O)[C@@H]2C[C@@H](O)CN2C(=O)[C@@H](NC(=O)COCCCN2CCN(C(=O)C[C@@H]3N=C(c4ccc(Cl)cc4)c4c(sc(C)c4C)-n4c(C)nnc43)CC2)C(C)(C)C)cc1 [Example 313] | 87.5 |
| < 0.01 | Cc1ncsc1-c1ccc(CNC(=O)[C@@H]2C[C@@H](O)CN2C(=O)[C@@H](c2cc(OCCN3CCC(NC(=O)C[C@@H]4N=C(c5ccc(Cl)cc5)c5c(sc(C)c5C)-n5c(C)nnc54)CC3)no2)C(C)C)cc1 [Example 314] | 87 |
| > 1 | Cc1ncsc1-c1ccc(CNC(=O)[C@@H]2C[C@@H](O)CN2C(=O)[C@H](c2cc(OCCN3CCC(NC(=O)C[C@@H]4N=C(c5ccc(Cl)cc5)c5c(sc(C)c5C)-n5c(C)nnc54)CC3)no2)C(C)C)cc1 [Example 315] | 11.4 |
| 0.01 to 0.1 | Cc1ncsc1-c1ccc(CNC(=O)[C@@H]2C[C@@H](O)CN2C(=O)[C@H](c2cc(OCCO[C@H]3C[C@@H](NC(=O)C[C@@H]4N=C(c5ccc(Cl)cc5)c5c(sc(C)c5C)-n5c(C)nnc54)C3)no2)C(C)C)cc1 [Example 316] | 71.4 |
